Literature values in patent US11160765B2, “Compositions and methods of treating fungal infections of the nails” (KBR Incorporated, priority 2018, dated 2021).

System: Candida albicans

| SMILES | proteinase, phospholipase secretion, and dimorphism in Candida albicans |
| --- | --- |
| C=CCSSCC=C [diallyl disulphide (DADS0, diallyl disulphide] | significantly inhibit |
| C=CCSCC=C [diallyl sulphide (DAS), diallyl sulphide] | significantly inhibit |
